The values below come from patent US12415794B2 (Edgewise Therapeutics, Inc., priority 2018, dated 2025).

The structures appear in SMILES notation. Bounds are passed on as bounds.

By IC50 is commonly meant the point on the concentration scale where inhibition reaches its midpoint. The low end stands for greater potency in that assay, the high end for weaker potency in that assay.

The target of assay [1] is skeletal myofibrils (myosin ATPase). Briefly: Skeletal Myofibril ATPase Assay. In kind it is biochemical. The gist of the method: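 Rates of NADH loss (A340, kinetic read over 45 min) report ADP generation by myofibrillar myosin, coupled through pyruvate kinase and lactate dehydrogenase; pCa buffer at pH 7.0. IC50 fitted by 4-parameter logistic after normalizing to 1% DMSO controls; cardiac myofibrils served for selectivity.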

The target of assay [2] is T1, cardiac myofibrils (myosin ATPase).
T1 construct: frozen myofibril pellets obtained from cardiac tissue; from tissue
T1 sequence (P12883 whole entry): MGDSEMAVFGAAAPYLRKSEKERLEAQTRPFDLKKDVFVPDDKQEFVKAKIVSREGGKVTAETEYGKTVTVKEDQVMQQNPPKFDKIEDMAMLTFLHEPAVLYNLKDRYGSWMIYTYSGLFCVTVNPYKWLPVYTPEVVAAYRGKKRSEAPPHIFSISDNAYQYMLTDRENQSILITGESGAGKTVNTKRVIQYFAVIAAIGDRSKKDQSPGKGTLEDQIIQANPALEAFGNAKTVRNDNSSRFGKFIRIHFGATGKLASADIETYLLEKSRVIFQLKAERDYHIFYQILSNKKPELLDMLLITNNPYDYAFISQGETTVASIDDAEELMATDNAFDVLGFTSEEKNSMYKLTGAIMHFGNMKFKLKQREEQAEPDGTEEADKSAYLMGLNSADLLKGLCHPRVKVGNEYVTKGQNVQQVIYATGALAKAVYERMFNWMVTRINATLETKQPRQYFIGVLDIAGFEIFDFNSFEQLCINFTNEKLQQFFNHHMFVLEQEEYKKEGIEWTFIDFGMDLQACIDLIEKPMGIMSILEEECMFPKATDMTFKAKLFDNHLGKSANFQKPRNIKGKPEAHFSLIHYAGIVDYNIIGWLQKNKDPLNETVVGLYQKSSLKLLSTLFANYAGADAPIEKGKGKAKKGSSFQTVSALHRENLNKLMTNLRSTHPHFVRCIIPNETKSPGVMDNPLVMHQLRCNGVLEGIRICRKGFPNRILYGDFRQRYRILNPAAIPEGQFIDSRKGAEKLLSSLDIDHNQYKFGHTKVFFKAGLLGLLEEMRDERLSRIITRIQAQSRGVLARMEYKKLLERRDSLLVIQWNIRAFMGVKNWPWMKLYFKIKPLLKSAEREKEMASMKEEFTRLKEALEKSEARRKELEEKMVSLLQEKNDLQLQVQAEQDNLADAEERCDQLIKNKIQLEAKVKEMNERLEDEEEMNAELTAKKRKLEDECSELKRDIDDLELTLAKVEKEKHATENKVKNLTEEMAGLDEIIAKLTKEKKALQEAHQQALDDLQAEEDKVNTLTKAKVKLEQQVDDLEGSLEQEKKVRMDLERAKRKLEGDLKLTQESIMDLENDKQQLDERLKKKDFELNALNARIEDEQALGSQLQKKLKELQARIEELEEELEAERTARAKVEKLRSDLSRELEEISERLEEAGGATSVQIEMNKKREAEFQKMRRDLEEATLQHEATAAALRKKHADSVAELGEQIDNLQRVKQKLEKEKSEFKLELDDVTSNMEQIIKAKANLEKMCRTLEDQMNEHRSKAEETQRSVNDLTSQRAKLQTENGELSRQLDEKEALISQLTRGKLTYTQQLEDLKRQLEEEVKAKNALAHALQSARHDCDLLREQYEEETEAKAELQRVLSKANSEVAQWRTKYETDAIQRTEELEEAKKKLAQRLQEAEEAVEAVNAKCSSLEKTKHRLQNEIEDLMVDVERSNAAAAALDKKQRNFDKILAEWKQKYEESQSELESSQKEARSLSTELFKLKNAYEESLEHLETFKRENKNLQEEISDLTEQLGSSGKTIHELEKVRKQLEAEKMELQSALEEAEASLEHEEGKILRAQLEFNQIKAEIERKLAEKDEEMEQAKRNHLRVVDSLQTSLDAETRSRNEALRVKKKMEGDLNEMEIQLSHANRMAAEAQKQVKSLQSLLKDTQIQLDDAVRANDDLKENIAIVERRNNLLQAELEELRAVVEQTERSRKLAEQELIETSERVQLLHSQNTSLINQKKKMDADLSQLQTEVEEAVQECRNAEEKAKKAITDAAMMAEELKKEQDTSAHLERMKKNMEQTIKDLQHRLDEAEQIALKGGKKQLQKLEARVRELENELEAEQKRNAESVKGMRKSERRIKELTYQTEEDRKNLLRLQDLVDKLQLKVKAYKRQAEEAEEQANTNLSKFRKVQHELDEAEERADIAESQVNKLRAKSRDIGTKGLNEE
T1 sequence (P08590 whole entry partner): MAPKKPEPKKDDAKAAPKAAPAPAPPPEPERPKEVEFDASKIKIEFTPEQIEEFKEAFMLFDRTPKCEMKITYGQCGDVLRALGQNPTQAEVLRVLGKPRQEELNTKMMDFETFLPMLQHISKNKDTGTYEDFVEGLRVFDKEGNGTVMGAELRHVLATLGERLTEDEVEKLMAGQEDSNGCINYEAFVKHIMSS
T1 sequence (P10916 whole entry partner): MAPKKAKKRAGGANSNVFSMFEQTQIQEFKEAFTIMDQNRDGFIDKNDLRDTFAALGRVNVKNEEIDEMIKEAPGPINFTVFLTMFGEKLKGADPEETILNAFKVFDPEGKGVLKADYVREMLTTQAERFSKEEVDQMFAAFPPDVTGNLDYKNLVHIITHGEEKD
Briefly: Cardiac Myofibril ATPase Assay (counter screen). In kind it is biochemical. As to conditions: myofibrils 1.0 mg/mL, KCl omitted. The gist of the method:
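Myosin ATPase rate followed via NADH disappearance at 340 nm, coupled through pyruvate kinase and lactate dehydrogenase, using cardiac myofibril pellets (final 1.0 mg/mL) without KCl. IC50 values reflect rate reduction compared with vehicle-treated wells.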
(In general: Counterscreens check selectivity or assay interference.)

For the molecule `COc1ccc(-c2ccc(=O)n(CC(=O)Nc3ccc4c(c3)OCO4)n2)cc1` [IIIb-28, N-(benzo[d][1,3]dioxol-5-yl)-2-(3-(4-methoxyphenyl)-6-oxopyridazin-1(6H)-yl)acetamide], the IC50 in assay [1] (Table 4C) is 10 to 100 µM; in assay [2] (Table 5C) it was more than 100 µM.

Consider `O=C(Cn1nc(-c2ccc(OC(F)F)nc2)ccc1=O)NC1(c2ccccc2)CCC1` [Compound I-68, 2-(3-(6-(difluoromethoxy)pyridin-3-yl)-6-oxopyridazin-1(6H)-yl)-N-(1-phenylcyclobutyl)acetamide], for which the concentration for half-maximal inhibition (IC50) in assay [1] (Table 4A) is less than 10 µM; in assay [2] (Table 5A), more than 100 µM.

As to `COc1ccc(-c2ccc(=O)n(CC(=O)NC(C)C)n2)c(F)c1` [IIIb-19, 2-(3-(2-fluoro-4-methoxyphenyl)-6-oxopyridazin-1(6H)-yl)-N-isopropylacetamide], the IC50 was 10 to 100 µM in assay [1] (Table 4C) and more than 100 µM in assay [2] (Table 5C).

In the case of `O=C(Cn1nc(-c2ccc(OCC(F)(F)F)nc2)ccc1=O)NC1CCC1` [Compound I-56, N-cyclobutyl-2-(6-oxo-3-(6-(2,2,2-trifluoroethoxy)pyridin-3-yl)pyridazin-1(6H)-yl)acetamide], the figures for the IC50 in assay [1] (Table 4A) and in assay [2] (Table 5A) were less than 10 µM and 10 to 100 µM, respectively.

As for `O=C(Cn1nc(-c2cnc(OCC(F)(F)F)nc2)ccc1=O)NC1CCC1` [Compound I-71, N-cyclobutyl-2-(6-oxo-3-(2-(2,2,2-trifluoroethoxy)pyrimidin-5-yl)pyridazin-1(6H)-yl)acetamide], the IC50 in assay [1] (Table 4A) was less than 10 µM; in assay [2] (Table 5A), more than 100 µM.

With `COc1ccc(-c2ccc(=O)n(CC(=O)NCC3CCOCC3)n2)cc1` [IIIa-29, 2-(3-(4-methoxyphenyl)-6-oxopyridazin-1(6H)-yl)-N-((tetrahydro-2H-pyran-4-yl)methyl) acetamide], the IC50 in assay [1] (Table 4C) and in assay [2] (Table 5C) was more than 100 µM in each case.

Take `CC(C)[C@@](C)(C#N)NC(=O)Cn1nc(-c2ccc(OC(F)F)nc2)ccc1=O` (stereo in doubt) [Compound I-34, N-(2-cyano-3-methylbutan-2-yl)-2-(3-(6-(difluoromethoxy)pyridin-3-yl)-6-oxopyridazin-1(6H)-yl)acetamide]: the values for the IC50 in assay [1] (Table 4A) and in assay [2] (Table 5A) were 10 to 100 µM and more than 100 µM, respectively.

Take `COc1ccc(-c2ccc(=O)n(CC(=O)Nc3cccc4c3ccn4C)n2)cc1` [IIIb-4, 2-(3-(4-methoxyphenyl)-6-oxopyridazin-1(6H)-yl)-N-(1-methyl-1H-indol-4-yl)acetamide]: the IC50 in assay [1] (Table 4C) is less than 10 µM; in assay [2] (Table 5C), 10 to 100 µM.

`O=C(Cn1nc(-c2ccc(OC(F)F)nc2)ccc1=O)NCc1ccc(Cl)cc1` [Compound I-70, N-(4-chlorobenzyl)-2-(3-(6-(difluoromethoxy)pyridin-3-yl)-6-oxopyridazin-1(6H)-yl)acetamide]: the half-inhibitory concentration (IC50) is less than 10 µM in assay [1] (Table 4A) and more than 100 µM in assay [2] (Table 5A).

Consider `CCNC(=O)Cn1nc(-c2ccc(NC3COC3)nc2)ccc1=O` [Compound I-44, N-ethyl-2-(3-(6-(oxetan-3-ylamino)pyridin-3-yl)-6-oxopyridazin-1(6H)-yl)acetamide], for which the IC50 in assay [1] (Table 4A) was less than 10 µM; in assay [2] (Table 5A), more than 100 µM.

For the molecule `O=C(Cn1nc(-c2ccc(OCC(F)(F)F)cc2)ccc1=O)N1CCC1c1ccccc1` (stereo not shown) [II-23, 2-(2-oxo-2-(2-phenylazetidin-1-yl)ethyl)-6-(4-(2,2,2-trifluoroethoxy)phenyl)pyridazin-3(2H)-one], the figures for the IC50 in assay [1] (Table 4B) and in assay [2] (Table 5B) were less than 10 µM and more than 100 µM, respectively.

Regarding `COc1ccc(-c2ccc(=O)n(CC(=O)NC3Cc4ccccc4C3)n2)cc1` [IIIb-8, N-(2,3-dihydro-1H-inden-2-yl)-2-(3-(4-methoxyphenyl)-6-oxopyridazin-1(6H)-yl)acetamide], the results for the IC50 in assay [1] (Table 4C) and in assay [2] (Table 5C) were less than 10 µM and more than 100 µM, respectively.

As for `O=C(Cn1nc(-c2ccccc2)ccc1=O)Nc1cccc2[nH]ccc12` [IIIc-50, N-(1H-indol-4-yl)-2-(6-oxo-3-phenylpyridazin-1(6H)-yl)acetamide], the figures for the IC50 in assay [1] (Table 4C) and in assay [2] (Table 5C) were 10 to 100 µM and more than 100 µM, respectively.

As for `O=C(Cn1nc(-c2ccc(OC(F)F)cc2)ccc1=O)NCc1ccccc1Cl` [II-3, N-(2-chlorobenzyl)-2-(3-(4-(difluoromethoxy)phenyl)-6-oxopyridazin-1(6H)-yl)acetamide], the half-maximal inhibitory concentration (IC50) in assay [1] (Table 4B) is less than 10 µM; in assay [2] (Table 5B), more than 100 µM.

Take `CCNC(=O)Cn1nc(-c2ccc(OCCCN(C)C)nc2)ccc1=O` [Compound I-28, 2-(3-(6-(3-(dimethylamino)propoxy)pyridin-3-yl)-6-oxopyridazin-1(6H)-yl)-N-ethylacetamide]: the IC50 in assay [1] (Table 4A) and in assay [2] (Table 5A) was more than 100 µM each time.

On to `COc1ccc(-c2ccc(=O)n(CC(=O)NCc3ccccc3)n2)c(F)c1` [IIIb-54, N-benzyl-2-(3-(2-fluoro-4-methoxyphenyl)-6-oxopyridazin-1(6H)-yl)acetamide], for which the IC50 in assay [1] (Table 4C) and in assay [2] (Table 5C) was more than 100 µM throughout.

Turning to `COc1ccc(-c2ccc(=O)n(CC(=O)NCc3cnccn3)n2)cc1` [IIIa-28, 2-(3-(4-methoxyphenyl)-6-oxopyridazin-1(6H)-yl)-N-(pyrazin-2-ylmethyl)acetamide], the IC50 in assay [1] (Table 4C) and in assay [2] (Table 5C) was more than 100 µM in each case.

Turning to `CCNC(=O)Cn1nc(-c2ccc(NC3CCC3)nc2)ccc1=O` [Compound I-62, 2-(3-(6-(cyclobutylamino)pyridin-3-yl)-6-oxopyridazin-1(6H)-yl)-N-ethylacetamide], the IC50 in assay [1] (Table 4A) is less than 10 µM; in assay [2] (Table 5A), more than 100 µM.

For the molecule `COc1ccc(-c2ccc(=O)n(CC(=O)NCc3ccccc3Cl)n2)cc1C` [IIIa-23, N-(2-chlorobenzyl)-2-(3-(4-methoxy-3-methylphenyl)-6-oxopyridazin-1(6H)-yl)acetamide], the IC50 in assay [1] (Table 4C) was 10 to 100 µM; in assay [2] (Table 5C), more than 100 µM.

For the molecule `O=C(Cn1nc(-c2ccc(Cl)cc2)ccc1=O)Nc1ccccc1Cl` [IIIc-38, N-(2-chlorophenyl)-2-(3-(4-chlorophenyl)-6-oxopyridazin-1(6H)-yl)acetamide], the IC50 in assay [1] (Table 4C) was less than 10 µM; in assay [2] (Table 5C) it was more than 100 µM.

Consider `CCNC(=O)Cn1nc(-c2ccc(N3CCC34COC4)nc2)ccc1=O` [Compound I-19, 2-(3-(6-(6-oxa-1-azaspiro[3.3]heptan-1-yl)pyridin-3-yl)-6-oxopyridazin-1(6H)-yl)-N-ethylacetamide], for which the IC50 in assay [1] (Table 4A) is 10 to 100 µM; in assay [2] (Table 5A), more than 100 µM.

Consider `CCc1ccc(-c2ccc(=O)n(CC(=O)Nc3ccc4c(c3)OCCO4)n2)cc1` [IIIb-44, N-(2,3-dihydrobenzo[b][1,4]dioxin-6-yl)-2-(3-(4-ethylphenyl)-6-oxopyridazin-1(6H)-yl)acetamide], for which the IC50 in assay [1] (Table 4C) and in assay [2] (Table 5C) was more than 100 µM in each case.

For `O=C(Cn1nc(-c2ccc(OC(F)F)nc2)ccc1=O)NC1CCC1` [Compound I-4, N-cyclobutyl-2-(3-(6-(difluoromethoxy)pyridin-3-yl)-6-oxopyridazin-1(6H)-yl)acetamide], the IC50 in assay [1] (Table 4A) is less than 10 µM; in assay [2] (Table 5A), more than 100 µM.

Consider `O=C(Cn1nc(-c2ccc(OCC(F)(F)F)cc2)ccc1=O)NCc1ccncc1Cl` [II-25, N-((3-chloropyridin-4-yl)methyl)-2-(6-oxo-3-(4-(2,2,2-trifluoroethoxy)phenyl)pyridazin-1(6H)-yl)acetamide], for which the IC50 in assay [1] (Table 4B) and in assay [2] (Table 5B) was more than 100 µM throughout.

Consider `COc1ccc(-c2ccc(=O)n(CC(=O)NCC(C)C)n2)cc1` [IIIb-29, N-isobutyl-2-(3-(4-methoxyphenyl)-6-oxopyridazin-1(6H)-yl)acetamide], for which the IC50 in assay [1] (Table 4C) is 10 to 100 µM; in assay [2] (Table 5C), more than 100 µM.

Consider `COc1ccc(-c2ccc(=O)n(CC(=O)NCc3ccccc3Cl)n2)cc1F` [IIIa-24, N-(2-chlorobenzyl)-2-(3-(3-fluoro-4-methoxyphenyl)-6-oxopyridazin-1(6H)-yl)acetamide], for which the IC50 in assay [1] (Table 4C) is 10 to 100 µM; in assay [2] (Table 5C), more than 100 µM.

On to `O=C(Cn1nc(-c2cnc(OCCOC(F)(F)F)nc2)ccc1=O)NC1CCC1` [Compound I-72, N-cyclobutyl-2-(6-oxo-3-(2-(2-(trifluoromethoxy)ethoxy)pyrimidin-5-yl)pyridazin-1(6H)-yl)acetamide], for which the IC50 in assay [1] (Table 4A) was less than 10 µM; in assay [2] (Table 5A), more than 100 µM.

Consider `COc1ccc(-c2ccc(=O)n(CC(=O)NCc3ccc(Cl)cc3)n2)cc1` [IIIa-17, N-(4-chlorobenzyl)-2-(3-(4-methoxyphenyl)-6-oxopyridazin-1(6H)-yl)acetamide], for which the IC50 in assay [1] (Table 4C) was less than 10 µM; in assay [2] (Table 5C), more than 100 µM.

On to `CC(C)c1cccc(NC(=O)Cn2nc(-c3ccc4c(c3)OCCCO4)ccc2=O)c1` [IIIb-5, 2-(3-(3,4-dihydro-2H-benzo[b][1,4]dioxepin-7-yl)-6-oxopyridazin-1(6H)-yl)-N-(3-isopropylphenyl) acetamide], for which the values for the IC50 in assay [1] (Table 4C) and in assay [2] (Table 5C) were less than 10 µM and 10 to 100 µM, respectively.

Take `COc1ccc(-c2ccc(=O)n(CC(=O)NC3(c4ccccc4Cl)CC3)n2)cc1` [IIIa-20, N-(1-(2-chlorophenyl)cyclopropyl)-2-(3-(4-methoxyphenyl)-6-oxopyridazin-1(6H)-yl)acetamide]: the 50% inhibitory concentration (IC50) is 10 to 100 µM in assay [1] (Table 4C) and more than 100 µM in assay [2] (Table 5C).

Take `COc1ccc(-c2ccc(=O)n(CC(=O)NCc3cnoc3)n2)cc1` [IIIa-31, N-(isoxazol-4-ylmethyl)-2-(3-(4-methoxyphenyl)-6-oxopyridazin-1(6H)-yl)acetamide]: the IC50 in assay [1] (Table 4C) and in assay [2] (Table 5C) was more than 100 µM throughout.

In the case of `CCNC(=O)Cn1nc(-c2ccc(N3CC(C)(C)C3)nc2)ccc1=O` [Compound I-18, 2-(3-(6-(3,3-dimethylazetidin-1-yl)pyridin-3-yl)-6-oxopyridazin-1(6H)-yl)-N-ethylacetamide], the IC50 was 10 to 100 µM in assay [1] (Table 4A) and more than 100 µM in assay [2] (Table 5A).
